Laboratory results taken from PMC9501232, “Novel 4-Azapregnene Derivatives as Potential Anticancer Agents: Synthesis, Antiproliferative Activity and Molecular Docking Studies” (Molecules, 2022).

Columns and labels:
Type in all cases: cell-based, human
[1] = system: caspase-9 activity in T47-D cells; assay: Caspase-Glo 9 caspase-9 activity assay; details: 48 h, DOX 10 µM, 3g 10 and 20 µM, relative to untreated cells
Protocol: Promega Caspase-Glo 9 assay (Promega, Madison, WI, USA) was employed to evaluate the caspase-9 activity. T47-D cells were seeded in a 96 multiwell plate at a density of 4 × 10^4 cells/mL. After 48 h, cells were treated with the positive control, DOX, at 10 μM and with 10 and 20 μM of 3g, during 48 h. The assay was performed at the end of treatment, following the instructions provided by the manufacturer. Data are representative of at least two experiments (n = 4 in each).

LNCaP cells = assay: Flow cytometry cell viability after PI staining; details: 50 µM
Protocol: Similar to the previous study, the analysis of cell viability was accomplished by flow cytometry after staining dead cells with propidium iodide (PI; Invitrogen, Carlsbad, USA). Succinctly, 1 mL of a cell suspension was seeded in 12-well culture plates (initial cell density of 5 × 10^4 cells/mL of LNCaP cells for 24 h assay and 2 × 10^4 cells/mL of the same cell line for 72 h assay) in a complete culture medium. After 48 h, the cells were treated with finasteride and 5-FU, as positive controls, and compound 3g at a concentration of 50 µM. Untreated cells were used as a negative control. At the pretended time point, the supernatant was collected and pooled with the cells harvested by trypsin treatment (each well was also washed with 400 µL of PBS before trypsin treatment). The resulting cell suspension was kept on ice and pelleted by centrifugation and resuspended with 400 µL of complete medium. Afterward, 5 µL of PI (1 mg/mL) was transferred to a FACS tube and 395 µL of the cell suspension was added to this tube. A total of 20,000 events (very small events excluded) were acquired using a FACSCalibur flow cytometer, using the FCS, SSC and FL3 (PI) channels. Acquisition and analysis were executed with CellQuestTM Pro (v. 5.1) software. […] The percentages of each region were calculated for a total of R1 + R2 + R3. […]

T47-D cells = assay: Fluorescence microscopy, PI/Hoechst 3342 staining; details: 20 µM, 24, 48 and 72 h, vs negative and positive controls
Protocol: To access the effects of the compound 3g in T47-D cells, fluorescence microscopy assays with Hoechst 3342 and PI staining were performed. T47-D cells were seeded at 2 × 10^4 cells/mL in a 24-well culture plate containing circular coverslips of 10 mm diameter, in a complete culture medium. After 48 h, cells were incubated during 24, 48 and 72 h, with 5-FU at 20 µM, as the positive control, steroid 3g at 20 µM, and untreated cells were used as a negative control. Then, cells were incubated with 20 µL/per well of a solution of PI in PBS at 1 mg/mL for 25 min at 37 °C. The medium was removed, and the cells were fixed with formalin 4% for 15 min at room temperature. Cells were washed three times with PBS and then they were incubated with 30 µL/per coverslip of Hoechst 33,342 (1:500) for 10 min. After incubation, cells were washed three times with PBS. Coverslips were mounted on a drop of permanent mounting medium (Dako) on a microscope slide and visualized in a Zeiss Axio Imager A1 microscope with the 40 × objective. The PI/Hoechst 3342 ratio was calculated by dividing PI-positive cells by Hoechst 3342-positive cells and, then the values were normalized.

C[C@]12CC[C@H]3[C@@H](CC=C4NC(=O)CC[C@@]43C)[C@@H]1CC[C@@H]2C(=O)/C=C/c1cccnc1 [Compound 3g, 21E-[(Pyridin-3-yl)methylidene]-4-azapregn-5-ene-3,20-dione]
Caspase-9 activity [1]: significant elevation in caspase-9 activity | Number of living cells (PI non-permeant) (LNCaP cells; 24 h): drastic reduction in the number of living cells | Number of viable cells (PI non-permeant) (LNCaP cells; 72 h): almost absent | Ratio of PI/Hoechst 3342 staining (T47-D cells): higher ratio of PI/Hoechst 3342 staining
